Where two headings read alike, the source gives them in different places. Marks after values point to notes of the source that are not given here.
What was measured:
human TLR7 = target: T1, human TLR7 (Homo sapiens, UniProt Q9NYK1); assay: Human TLR7 reporter assay (NF-kB-SEAP, HEK 293 cells); assay type: cell-based; details: read-out: human TLR7 binding activity EC50
T1 construct: expressed in transfected cells; host or cells: HEK 293 (hTLR7/seap-293)
T1 sequence (Q9NYK1 27-1049): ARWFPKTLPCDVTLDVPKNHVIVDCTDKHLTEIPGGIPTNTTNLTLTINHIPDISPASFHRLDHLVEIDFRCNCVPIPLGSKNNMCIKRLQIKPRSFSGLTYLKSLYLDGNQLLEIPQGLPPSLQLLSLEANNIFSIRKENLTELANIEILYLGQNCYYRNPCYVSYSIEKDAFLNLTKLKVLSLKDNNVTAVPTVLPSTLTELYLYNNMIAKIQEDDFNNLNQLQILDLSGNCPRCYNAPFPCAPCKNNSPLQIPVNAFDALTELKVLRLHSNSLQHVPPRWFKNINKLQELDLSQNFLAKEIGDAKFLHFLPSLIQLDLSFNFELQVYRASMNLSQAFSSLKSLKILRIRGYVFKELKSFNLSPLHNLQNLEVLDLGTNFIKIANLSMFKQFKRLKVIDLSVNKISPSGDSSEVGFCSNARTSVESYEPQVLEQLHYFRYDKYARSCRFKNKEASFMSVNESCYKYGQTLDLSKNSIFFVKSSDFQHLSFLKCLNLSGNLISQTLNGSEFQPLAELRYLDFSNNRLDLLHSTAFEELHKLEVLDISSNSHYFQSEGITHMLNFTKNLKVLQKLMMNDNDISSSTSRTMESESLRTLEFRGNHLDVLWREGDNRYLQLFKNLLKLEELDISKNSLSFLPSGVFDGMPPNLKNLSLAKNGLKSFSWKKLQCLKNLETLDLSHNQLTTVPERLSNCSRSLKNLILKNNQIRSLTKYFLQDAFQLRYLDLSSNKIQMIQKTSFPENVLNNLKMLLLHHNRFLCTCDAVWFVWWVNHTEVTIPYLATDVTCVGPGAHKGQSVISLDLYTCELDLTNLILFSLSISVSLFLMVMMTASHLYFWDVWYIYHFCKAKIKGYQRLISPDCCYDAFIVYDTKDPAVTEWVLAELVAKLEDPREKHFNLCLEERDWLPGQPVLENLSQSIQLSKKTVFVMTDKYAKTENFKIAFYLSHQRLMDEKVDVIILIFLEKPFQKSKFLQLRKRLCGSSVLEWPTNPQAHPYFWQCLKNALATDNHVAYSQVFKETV
Protocol: HEK 293 cells, to which human TLR7 or rat TLR7 plasmid and reporter plasmid (NF-kB-SEAP) were stably introduced, were suspended in DMEM medium (10% FBS, 1% NEAA, 10 ug/mL blastocidin S HCl, 100 ug/mL Zeocin), and seeded into a 96-well plate in an amount of 90 μl/well (hTLR7/seap-293: 20,000 cells/well, rTLR7/seap-293: 25,000 cells/well).
A test compound (DMSO stock solution (2 μl) was diluted into 100-fold with the medium (200 μl)) was added into the cells seeded in the 96-well plate in an amount of 10 μl/well (final concentration: 1 nM to 10 μM, common ratio: 3). The side of the plate was lightly patted for stiffing the content of the plate, and the plate was incubated for 20 hours in a CO2 incubator. To the cells that were stimulated with a test compound was added a substrate for reporter assay (substrate for SEAP, pNPP) in an amount of 50 μl/well. The minute later after the addition of the substrate, the solution for reaction quenching (4N NaOH) was added to the plate in an amount of ? 50 μl/well in order to quench the enzyme reaction. A top seal A was applied to the plate, and the absorbance at 405 nm was measured by a microplate reader.
In a similar manner to Example 85, the following compounds were tested.

IFN-α = IFN-α production inducing activity in mice (plasma IFN-α by L929/2-5AS-Luc bioassay); assay type: in vivo, B6C3F1 mice; details: 3 hours after 1 mg/kg intravenously via tail vein, mean ± standard deviation (n = 3)
Protocol: A test compound was administered to B6C3F1 mice (Charles River Japan, Inc.) via tail vein at the dose of 1 mg/kg intravenously. After 3 hours, total blood was collected into a sample tube containing heparin. Plasma was prepared from total blood after centrifugation (3,000 rpm, 10 min, at room temperature) and stored at −20° C.
Murine fibroblasts (L929/2-5AS-Luc), which constitutively expressed luciferase gene in which the promoter region for 2′-5′-oligoadenylate synthase was cloned, was seeded into 96-well plate at 4×10^4 cells/well, and cultured for overnight with diluted plasma or mouse IFN-α. After Luclite (Perkin Elmer) was added to the plate, the luciferase activity was measured with TopCount (Perkin Elmer).
The concentration of IFN-α in plasma was calculated by linear regression of logarithmic transformed concentration of mouse IFN-α and the luciferase activity.

[1] = Table 1, HEK 293 hTLR7/NF-kB-SEAP reporter, 20 hours incubation
[2] = Table 6, tested in a similar manner to Example 85

EC50 (human TLR7; [2])	SMILES	EC50 (human TLR7; [1])	also measured
	CCCCOc1nc(N)c2nc(O)n(Cc3ccc(CN4CCOCC4)cc3)c2n1 [Example 1, 6-Amino-2-butoxy-9-(4-morpholin-4-ylmethylbenzyl)-7,9-dihydropurin-8-one]	7.2 nM	
	CCCCOc1nc(N)c2[nH]c(=O)n(Cc3ccc(CN4CCCCC4)cc3)c2n1 [Example 2, 6-Amino-2-butoxy-9-(4-piperidin-1-ylmethylbenzyl)-7,9-dihydropurin-8-one]	0.9 nM	
	CCCCOc1nc(N)c2[nH]c(=O)n(Cc3ccc(CN4CCN(C)CC4)cc3)c2n1 [Example 3, 6-Amino-2-butoxy-9-[4-(4-methylpiperazin-1-ylmethyl)benzyl]-7,9-dihydropurin-8-one]	1.8 nM	
	CCCCOc1nc(N)c2[nH]c(=O)n(Cc3ccc(CN4CCC(N(C)C)CC4)cc3)c2n1 [Example 4, 6-Amino-2-butoxy-9-[4-(4-dimethylaminopiperidin-1-ylmethyl)benzyl]-7,9-dihydropurin-8-one]	2.5 nM	
	CCCCOc1nc(N)c2[nH]c(=O)n(Cc3ccc(CN4CCC(N(C)C)C4)cc3)c2n1 (centres unmarked) [Example 5, 6-Amino-2-butoxy-9-[4-(3-dimethylaminopyrrolidin-1-ylmethyl)benzyl]-7,9-dihydropurin-8-one]	2.7 nM	
	COCCOc1nc(N)c2[nH]c(=O)n(Cc3ccc(CN4CCCCC4)cc3)c2n1 [Example 10, 6-Amino-2-(2-methoxyethoxy)-9-(4-piperidin-1-ylmethylbenzyl)-7,9-dihydropurin-8-one]		Mouse IFN-α (IFN-α): 7.3 ± 1.6 IU/mL
	COCCOc1nc(N)c2[nH]c(=O)n(Cc3ccc(CN4CCC(Oc5ccccc5)CC4)cc3)c2n1 [Example 13, 6-Amino-2-(2-methoxyethoxy)-9-[4-(4-phenoxypiperidin-1-ylmethyl)benzyl]-7,9-dihydropurin-8-one]	18.7 nM	
	Nc1nc(OCCCC(F)(F)F)nc2c1[nH]c(=O)n2Cc1ccc(CN2CCOCC2)cc1 [Example 23, 6-Amino-9-(4-morpholin-4-ylmethylbenzyl)-2-(4,4,4-trifluorobutoxy)-7,9-dihydropurin-8-one]	14.8 nM	
	CCCCNc1nc(N)c2[nH]c(=O)n(Cc3ccc(CN4CCCCC4)cc3)c2n1 [Example 29, 6-Amino-2-butylamino-9-(4-piperidin-1-ylmethylbenzyl)-7,9-dihydropurin-8-one]	7.6 nM	
	CCCCOc1nc(N)c2[nH]c(=O)n(Cc3ccc(OCCCN(C)C)cc3)c2n1 [Example 37, 6-Amino-2-butoxy-9-[4-(3-dimethylaminopropoxy)benzyl]-7,9-dihydropurin-8-one]	1.1 nM	
	COCCOc1nc(N)c2[nH]c(=O)n(Cc3ccc(N4CCN(C)CC4)nc3)c2n1 [Example 42, 6-Amino-2-(2-methoxyethoxy)-9-[6-(4-methylpiperazin-1-yl)pyridin-3-ylmethyl]-7,9-dihydropurin-8-one]		Mouse IFN-α (IFN-α): 30.0 ± 7.3 IU/mL
	CCCCNc1nc(N)c2[nH]c(=O)n(Cc3ccc(OCCN(C)C)nc3)c2n1 [Example 54, 6-Amino-2-butylamino-9-[6-(2-dimethylaminoethoxy)pyridin-3-ylmethyl]-7,9-dihydropurin-8-one]		Mouse IFN-α (IFN-α): 53.6 ± 6.5^a) IU/mL
	CCCCNc1nc(N)c2[nH]c(=O)n(Cc3cnc(N4CCN(C)CC4)c(Cl)c3)c2n1 [Example 56, 6-Amino-2-butylamino-9-[5-chloro-6-(4-methylpiperazin-1-yl)pyridin-3-ylmethyl]-7,9-dihydropurin-8-one]	1.3 nM	
	CCCCNc1nc(N)c2[nH]c(=O)n(Cc3cnc(OCCN(C)C)c(Cl)c3)c2n1 [Example 58, 6-Amino-2-butylamino-9-[5-chloro-6-(2-dimethylaminoethoxy)pyridin-3-ylmethyl]-7,9-dihydropurin-8-one]	3.7 nM	
	CCOc1nc(N)c2[nH]c(=O)n(Cc3ccc(CN4CCOCC4)cc3)c2n1 [Example 68, 6-Amino-2-ethoxy-9-(4-morpholin-4-ylmethylbenzyl)-7,9-dihydropurin-8-one]	5.5 nM	
3.3 nM	COCCOc1nc(N)c2[nH]c(=O)n(Cc3cnc(N4CCN(C)CC4)c(Cl)c3)c2n1 [Example 105, 6-Amino-9-[5-chloro-6-(4-methylpiperazin-1-yl)pyridin-3-ylmethyl]-2-(2-methoxyethoxy)-7,9-dihydropurin-8-one]		
16.5 nM	COCCOc1nc(N)c2[nH]c(=O)n(Cc3ccc(OCC(C)(C)CN(C)C)nc3)c2n1 [Example 110, 6-Amino-9-[6-(3-dimethylamino-2,2-dimethylpropoxy)pyridin-3-ylmethyl]-2-(2-methoxyethoxy)-7,9-dihydropurin-8-one]		
19.6 nM	CCCCNc1nc(N)c2[nH]c(=O)n(Cc3ccc(OCCCN(C)C)nc3)c2n1 [Example 116, 6-Amino-2-butylamino-9-[6-(3-dimethylaminopropoxy)pyridin-3-ylmethyl]-7,9-dihydropurin-8-one]		
14 nM	COCCOc1nc(N)c2[nH]c(=O)n(Cc3cnc(OCCN(C)C)c(Cl)c3)c2n1 [Example 118, 6-Amino-9-[5-chloro-6-(2-dimethylaminoethoxy)pyridin-3-ylmethyl]-2-(2-methoxyethoxy)-7,9-dihydropurin-8-one]		
3.7 nM	COCCOc1nc(N)c2[nH]c(=O)n(Cc3cnc(OCC(C)(C)CN(C)C)c(Cl)c3)c2n1 [Example 120, 6-Amino-9-[5-chloro-6-(3-dimethylamino-2,2-dimethylpropoxy)pyridin-3-ylmethyl]-2-(2-methoxyethoxy)-7,9-dihydropurin-8-one]		
6.9 nM	COCCOc1nc(N)c2[nH]c(=O)n(Cc3cnc(OC4CCN(C)CC4)c(Cl)c3)c2n1 [Example 123, 6-Amino-9-[5-chloro-6-(1-methylpiperidin-4-yloxy)pyridin-3-ylmethyl]-2-(2-methoxyethoxy)-7,9-dihydropurin-8-one]		

SMILES	EC50 (human TLR7; [2])	EC50 (human TLR7; [1])	also measured
CCCCOc1nc(N)c2[nH]c(=O)n(Cc3ccc(CN4CCN(C(=O)CN(C)C)CC4)cc3)c2n1 [Example 94, 6-Amino-2-butoxy-9-{4-[4-(2-dimethylaminoacetyl)piperazin-1-ylmethyl]benzyl}-7,9-dihydropurin-8-one]	2.5 nM		
CCCCOc1nc(N)c2[nH]c(=O)n(Cc3ccc(N(C)CCN(C)C)nc3)c2n1 [Example 104, 6-Amino-2-butoxy-9-{6-[(2-dimethylaminoethyl)methylamino]pyridin-3-ylmethyl}-7,9-dihydropurin-8-one]	5.3 nM		

From patent US20110028715A1, “NOVEL ADENINE COMPOUND” (priority 2007, published 2011)
